Data on 42 molecules can be found in US20240374573A1, “IMIDAZOLE CONTAINING COMPOUNDS, DERIVATIVES THEREFORE, AND USES THEREOF” (AglaeaPharma Inc., priority 2023, published 2024).

Assay [1] concerns the target T1, α2AAR (α2A-adrenergic receptor) (Homo sapiens, UniProt P08913).
T1 construct: expressed in transfected cells; host or cells: HEK293
T1 sequence (P08913 1-465): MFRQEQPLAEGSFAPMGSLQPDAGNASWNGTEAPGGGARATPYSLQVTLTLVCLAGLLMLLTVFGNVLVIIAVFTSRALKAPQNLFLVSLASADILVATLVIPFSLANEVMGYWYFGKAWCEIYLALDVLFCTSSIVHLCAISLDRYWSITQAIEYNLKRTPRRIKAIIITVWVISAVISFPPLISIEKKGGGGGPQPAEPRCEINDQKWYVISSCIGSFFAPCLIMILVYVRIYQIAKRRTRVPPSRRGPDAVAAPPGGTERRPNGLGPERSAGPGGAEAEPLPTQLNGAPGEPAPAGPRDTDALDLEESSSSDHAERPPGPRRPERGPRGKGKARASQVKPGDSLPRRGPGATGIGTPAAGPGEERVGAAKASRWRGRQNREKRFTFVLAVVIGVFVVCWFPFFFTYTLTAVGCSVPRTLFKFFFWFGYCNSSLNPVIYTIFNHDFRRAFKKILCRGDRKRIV
The experiment in a line: α2AAR FLIPR assay (agonist activity). The class given is cell-based. As to conditions: FLIPR, α2AAR cell line hosted in HEK293 cells; read-out: α2A agonist activity (EC50). The procedure, abridged: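 HEK293 cells expressing α2AAR loaded with Fluo-4 Direct plus probenecid for 50 min at 37° C and 10 min at room temperature, then treated with serially diluted compounds.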

The target of assay [2] is T2, α2AAR (Homo sapiens, UniProt P08913).
T2 construct: host or cells: HEK293 (membranes)
T2 sequence (P08913 1-465): T1 sequence (P08913 1-465)
The experiment in a line: α2AAR binding assay ([3H]-RX 821002 radioligand). Particulars: [3H]-RX 821002 0.5 nM, HEK293 membranes; read-out: α2A affinity (Ki).

Bounds are passed on as bounds.

As for `Cc1cccc(C(Cc2ccc(C(=O)NS(=O)(=O)c3ccccc3)cc2)c2c[nH]cn2)c1C` (stereo not drawn) [compound 204], the EC50 (commonly the concentration needed to bring the measured effect to its halfway point) in assay [1] fell in the range of 50 to 250 nM. For the same molecule, the Ki (in general, a measure of affinity in units of concentration, obtained from inhibition or displacement) in assay [2] lay within 50 to 250 nM.

Turning to `Cc1cccc(C(Cc2ccc(CC(=O)O)cc2)c2c[nH]cn2)c1C` (stereo not drawn) [compound 206], in assay [1], the EC50 was in the range of 50 to 250 nM. Besides, in assay [2], the Ki lay within 50 to 250 nM.

`Cc1cccc(C(Cc2ccc(NC3CCOCC3)cc2)c2c[nH]cn2)c1C` (stereo not drawn) [compound 207]: in assay [1], the concentration for a half-maximal effect (EC50) was in the range of 10 to 50 nM. Besides, in assay [2], the Ki is less than 10 nM.

On to `Cc1cccc(C(Cc2ccc(-c3cnnn3C)cc2)c2c[nH]cn2)c1C` (stereo not drawn) [compound 209], for which the EC50 in assay [1] was 10 to 50 nM. Besides, the Ki in assay [2] was less than 10 nM.

With `Cc1cccc(C(Cc2ccc(-c3nnn[nH]3)cc2)c2c[nH]cn2)c1C` (stereo not drawn) [compound 210], the EC50 in assay [1] lay within 50 to 250 nM. The Ki in assay [2] was in the range of 10 to 50 nM.

For the molecule `Cc1cn(-c2ccc(CC(c3c[nH]cn3)c3cccc(C)c3C)cc2)nn1` (stereo not drawn) [compound 211], the EC50 in assay [1] was 10 to 50 nM. In addition, the Ki in assay [2] was less than 10 nM.

On to `Cc1cccc(C(Cc2ccc(NC(=S)C3CCOCC3)cc2)c2c[nH]cn2)c1C` (stereo not drawn) [compound 212], for which the EC50 in assay [1] is 10 to 50 nM. Besides, in assay [2], the Ki was less than 10 nM.

Take `Cc1cccc(C(Cc2ccc(C(=O)O)c(O)c2)c2c[nH]cn2)c1C` (stereo not drawn) [compound 218]: the EC50 in assay [1] lay in the range of 10 to 50 nM. For the same molecule, the Ki in assay [2] lay within 50 to 250 nM.

For the molecule `Cc1cccc(C(c2cccc(-c3cnnn3C3CCOCC3)c2)c2c[nH]cn2)c1C` (stereo not drawn) [compound 220], the EC50 in assay [1] was less than 10 nM. In addition, in assay [2], the Ki was less than 10 nM.

For `Cc1cccc(C(Cc2ccc(S(=O)(=O)O)cc2)c2c[nH]cn2)c1C` (stereo not drawn) [compound 221], the EC50 in assay [1] was 10 to 50 nM. Further, the Ki in assay [2] was 10 to 50 nM.

Turning to `CC(=O)N(C)c1ccc(CC(c2c[nH]cn2)c2cccc(C)c2C)cc1` (stereo not drawn) [compound 222], the EC50 in assay [1] lay in the range of 10 to 50 nM. Also, in assay [2], the Ki was in the range of 10 to 50 nM.

For the molecule `Cc1cccc(C(Cc2ccc(O)c(O)c2)c2c[nH]cn2)c1C` (stereo not drawn) [compound 223], in assay [1], the EC50 is 10 to 50 nM. For the same molecule, the Ki in assay [2] was less than 10 nM.

On to `COc1ccc(CC(c2c[nH]cn2)c2cccc(C)c2C)cc1OC` (stereo not drawn) [compound 224], for which the half-maximal effective concentration (EC50) in assay [1] was less than 10 nM. In addition, the Ki in assay [2] was less than 10 nM.

Consider `Cc1cccc(C(Cc2ccc3c(c2)OCC(=O)N3)c2c[nH]cn2)c1C` (stereo not drawn) [compound 225], for which the EC50 in assay [1] is less than 10 nM. In addition, the Ki in assay [2] was less than 10 nM.

For `COc1cc(CC(c2c[nH]cn2)c2cccc(C)c2C)cc(OC)c1OC` (stereo not drawn) [compound 226], the EC50 in assay [1] was less than 10 nM. Also, the Ki in assay [2] was less than 10 nM.

For the molecule `Cc1cccc(C(Cc2ccc(C(C)c3nnn[nH]3)cc2)c2c[nH]cn2)c1C` (stereo not drawn) [compound 227], in assay [1], the concentration giving a half-maximal response (EC50) fell in the range of 10 to 50 nM. In assay [2], the Ki is 10 to 50 nM.

In the case of `Cc1cccc(C(Cc2ccc(N(C)C(=O)N(C)C)cc2)c2c[nH]cn2)c1C` (stereo not drawn) [compound 228], the EC50 in assay [1] is less than 10 nM. For the same molecule, the Ki in assay [2] is less than 10 nM.

As for `Cc1cccc(C(Cc2ccc(C(=O)NCC(=O)O)cc2)c2c[nH]cn2)c1C` (stereo not drawn) [compound 229], the EC50 in assay [1] was in the range of 10 to 50 nM. Besides, in assay [2], the Ki fell in the range of 50 to 250 nM.

For `Cc1cccc(C(Cc2ccc3c(c2)CCC(=O)N3)c2c[nH]cn2)c1C` (stereo not drawn) [compound 230], the EC50 in assay [1] lay within 10 to 50 nM. The Ki in assay [2] is less than 10 nM.

With `CNc1cccc(CC(c2c[nH]cn2)c2cccc(C)c2C)c1` (stereo not drawn) [compound 231], the half-maximal effective concentration (EC50) in assay [1] lay in the range of 10 to 50 nM. Besides, in assay [2], the Ki is 10 to 50 nM.

`Cc1cccc(C(Cc2ccc(S(C)(=O)=O)cc2)c2c[nH]cn2)c1C` (stereo not drawn) [compound 232]: the EC50 in assay [1] was less than 10 nM. Moreover, the Ki in assay [2] was less than 10 nM.

On to `Cc1cccc(C(Cc2ccc(C(=O)NC3CCOCC3)c(O)c2)c2c[nH]cn2)c1C` (stereo not drawn) [compound 233], for which the EC50 in assay [1] was in the range of 10 to 50 nM. Moreover, the Ki in assay [2] was 10 to 50 nM.

With `Cc1cccc(C(Cc2ccc(NC(=O)C3CCO3)cc2)c2c[nH]cn2)c1C` (stereo not drawn) [compound 234], the EC50 in assay [1] lay within 10 to 50 nM. Moreover, the Ki in assay [2] is less than 10 nM.

Turning to `Cc1cccc(C(Cc2ccc3c(c2)OCCN3)c2c[nH]cn2)c1C` (stereo not drawn) [compound 235], the concentration for a half-maximal effect (EC50) in assay [1] is 10 to 50 nM. Also, the Ki in assay [2] was less than 10 nM.

`Cc1cccc(C(Cc2ccc(C(=O)NCCC(=O)O)cc2)c2c[nH]cn2)c1C` (stereo not drawn) [compound 236]: the EC50 in assay [1] lay within 10 to 50 nM. The Ki in assay [2] was 50 to 250 nM.

With `CNC(=O)Nc1ccc(CC(c2c[nH]cn2)c2cccc(C)c2C)cc1` (stereo not drawn) [compound 237], the EC50 in assay [1] lay in the range of 10 to 50 nM. Also, in assay [2], the Ki is less than 10 nM.

With `Cc1cccc(C(Cc2ccc(OCC(=O)O)cc2)c2c[nH]cn2)c1C` (stereo not drawn) [compound 239], the EC50 in assay [1] was in the range of 10 to 50 nM. Further, the Ki in assay [2] is 50 to 250 nM.

For the molecule `Cc1cccc(C(Cc2ccc(-c3nnn(C)n3)cc2)c2c[nH]cn2)c1C` (stereo not drawn) [compound 241], the EC50 in assay [1] was in the range of 10 to 50 nM. Further, the Ki in assay [2] was 10 to 50 nM.

For the molecule `Cc1cccc(C(Cc2ccc(NC(=O)C3CCOCC3)nc2)c2c[nH]cn2)c1C` (stereo not drawn) [compound 242], the EC50 in assay [1] lay within 10 to 50 nM. For the same molecule, in assay [2], the Ki lay in the range of 50 to 250 nM.

With `Cc1cccc(C(Cc2ccc(N3CCN(C)C3=O)cc2)c2c[nH]cn2)c1C` (stereo not drawn) [compound 243], the half-maximal effective concentration (EC50) in assay [1] was less than 10 nM. Besides, in assay [2], the inhibition constant Ki was less than 10 nM.

As to `Cc1ccccc1C(Cc1ccc(C(N)=O)cc1)c1c[nH]cn1` (stereo not drawn) [compound 244], the EC50 in assay [1] fell in the range of 50 to 250 nM. In addition, in assay [2], the inhibitory constant (Ki) is 50 to 250 nM.

Consider `Cc1cccc(C(Cc2ccc(NC(=O)N(C)C3CCOC3)cc2)c2c[nH]cn2)c1C` (stereo not drawn) [compound 245], for which the EC50 in assay [1] was less than 10 nM. Moreover, the Ki in assay [2] is less than 10 nM.

With `Cc1cccc(C(Cc2ccc3c(c2)NCCN3)c2c[nH]cn2)c1C` (stereo not drawn) [compound 246], the EC50 in assay [1] lay within 10 to 50 nM. For the same molecule, the Ki in assay [2] was 10 to 50 nM.

As for `CC(=O)Nc1ccc(CC(c2c[nH]cn2)c2cccc(C)c2C)c(F)c1` (stereo not drawn) [compound 247], in assay [1], the EC50 was 10 to 50 nM. Moreover, in assay [2], the Ki was less than 10 nM.

In the case of `CC(=O)Nc1ccc(CC(c2c[nH]cn2)c2cccc(C)c2C)cn1` (stereo not drawn) [compound 248], in assay [1], the EC50 lay within 10 to 50 nM. In addition, the Ki in assay [2] is 50 to 250 nM.

On to `Cc1cccc(C(Cc2ccc(C(C)(C)C(=O)O)cc2)c2c[nH]cn2)c1C` (stereo not drawn) [compound 251], for which the EC50 in assay [1] lay within 10 to 50 nM. The Ki in assay [2] is 50 to 250 nM.

In the case of `CONC(=O)c1cccc(CC(NC2=NCCO2)c2ccccc2OC)c1` (stereo not drawn) [compound 503, 3-[2-(4,5-dihydro-1,3-oxazol-2-ylamino)-2-(2-methoxyphenyl)ethyl]-N-methoxybenzamide], the half-maximal effective concentration (EC50) in assay [1] is 50 to 250 nM. In assay [2], the Ki was less than 10 nM.

With `COc1ccccc1C(Cc1cccc(NS(C)(=O)=O)c1)N=C1NCCN1` (stereo not drawn) [compound 505, N-{3-[2-(imidazolidin-2-ylideneamino)-2-(2-methoxyphenyl)ethyl]phenyl}methanesulfonamide], in assay [1], the EC50 is 50 to 250 nM. The Ki in assay [2] is less than 10 nM.

In the case of `CONC(=O)c1cccc(CC(NC2=NCCS2)c2cccc(Cl)c2)c1` (stereo not drawn) [compound 506], the EC50 in assay [1] lay in the range of 50 to 250 nM. In assay [2], the Ki was less than 10 nM.

With `COc1ccccc1C(Cc1cccc(NS(C)(=O)=O)c1)NC1=NCCO1` (stereo not drawn) [compound 509], in assay [1], the concentration for a half-maximal effect (EC50) was 50 to 250 nM. In assay [2], the Ki is less than 10 nM.

Consider `COc1ccccc1C(Cc1cccc(NS(=O)(=O)CC2CCOCC2)c1)NC1=NCCS1` (stereo not drawn) [compound 515], for which the EC50 in assay [1] is 50 to 250 nM. Moreover, the Ki in assay [2] is less than 10 nM.

As to `CS(=O)(=O)Nc1cccc(CC(Oc2c(Cl)cccc2Cl)C2=NCCN2)c1` (stereo not drawn) [compound 516], the EC50 in assay [1] fell in the range of 50 to 250 nM. Also, the Ki in assay [2] lay in the range of 50 to 250 nM.
